We go through 41 compounds from ChEMBL document CHEMBL1121470, “Synthesis and antiinflammatory activity of some 2-(substituted-pyridinyl)benzimidazoles” (J Med Chem, 1980).

One experiment has as its system Rattus norvegicus. Briefly: Antiinflammatory activity by carrageenan-induced rat paw edema assay after 3 hr at 100 mg/kg concentration administered perorally. The format is functional. As to conditions: route oral. On the technique in general: Carrageenan injected into the paw causes an acute inflammation.
As a reminder, the inhibition in vivo is the change of the read-out against control, counted positive when it falls. As for `Cc1ccc(-c2nc3ccccc3n2CC(=O)N2CCN(CCO)CC2)nc1`, the inhibition in vivo at 100 mg/kg amounted to 14%.
On the same count and under the same terms, the figure for `Cc1cccc(-c2nc3cc(O)ccc3[nH]2)n1` is 6%; for `O=C(Cn1c(-c2ccccn2)nc2ccccc21)N1CCN(CCO)CC1` it is -4%; for `CCc1ccc(-c2nc3cc(Cl)ccc3[nH]2)nc1` it is -2%.
The same measure, in the same setting: the figure for `CCc1ccc(-c2nc3ccccc3n2Cc2ccccc2)nc1` is -18%; for `CCc1cccc(-c2nc3cc(C)ccc3[nH]2)n1` it is 10%; for `CCc1ccc(-c2nc3ccccc3n2CC(=O)OC)nc1` it is 9%.
The same measure, in the same setting: the figure for `CCc1ccc(-c2nc3cc(N)ccc3[nH]2)nc1` is 25%; for `Cc1ccc(-c2nc3ccccc3[nH]2)nc1C` it is 37%; for `CCc1ccc(-c2nc3ccccc3n2C)nc1` it is 5%.
As to `CCc1ccc(-c2nc3cc(NC(C)=O)ccc3[nH]2)nc1`, the inhibition in vivo at 100 mg/kg was determined as 5%.
Still for that read-out and setting: the figure for `Cc1ccc(-c2nc3ccccc3n2CC(=O)N2CCCC2)nc1` is 14%; for `CCc1ccc(-c2nc3ccccc3n2CC(=O)N2CCN(CCO)CC2)nc1` it is 4%; for `Cc1ccc2[nH]c(-c3ccc(C)c(C)n3)nc2c1` it is -19%.
For `CCc1ccc(-c2nc3cc([N+](=O)[O-])ccc3[nH]2)nc1`, the inhibition in vivo at 100 mg/kg was -5%.
On the same count and under the same terms, the figure for `Cc1ccc(-c2nc3ccccc3n2CC(=O)N2CCCCC2)nc1` is 2%.
Same read-out and setting: the figure for `Cc1ccc(-c2nc3ccccc3n2CCN(C)C)nc1` is 12%; for `COC(=O)Cn1c(-c2ccccn2)nc2ccccc21` it is -17%.
On the same count and under the same terms, the figure for `Cc1ccc2[nH]c(-c3cccc(O)n3)nc2c1` is -6%; for `CCc1ccc(-c2nc3ccccc3n2-c2ccccc2)nc1` it is 12%; for `Cc1ccc(-c2nc3cc(Cl)ccc3[nH]2)nc1` it is -5%.
With `CCc1cccc(-c2nc3cc(Cl)ccc3[nH]2)n1`, the inhibition in vivo at 100 mg/kg came out at 3%.
The same measure, in the same setting: the figure for `Cc1ccc(-c2nc3ccccc3n2CC(=O)N2CCN(C)CC2)nc1` is 11%; for `CCc1ccc(-c2nc3cc(O)ccc3[nH]2)nc1` it is 25%.
On the same count and under the same terms, the figure for `CCc1ccc(-c2nc3ccccc3n2CC(=O)N2CCCC2)nc1` is -5%.
As to `COc1cccc(-c2nc3cc(C)ccc3[nH]2)n1`, the inhibition in vivo at 100 mg/kg was determined as 32%.

In a further experiment the test system is Rattus norvegicus. Briefly: Antiinflammatory activity was evaluated by carrageenan-induced rat paw edema assay after 3 hr at 100 mg/kg concentration administered perorally. In kind it is functional. The settings on record: route oral.
As for `CCOC(=O)c1cccc(-c2nc3ccccc3[nH]2)n1`, the inhibition in vivo at 100 mg/kg was determined as 31%.
The same measure, in the same setting: the figure for `CCOC(=O)c1ccc(-c2nc3ccccc3[nH]2)nc1` is -16%; for `COc1ccc2[nH]c(-c3ccccn3)nc2c1` it is 34%; for `Clc1cccc(-c2nc3ccccc3[nH]2)n1` it is 30%.
Regarding `Cc1ccc(-c2nc3cc(C)ccc3[nH]2)nc1`, the inhibition in vivo at 100 mg/kg is 7%.
Same read-out and setting: the figure for `OCc1ccc(-c2nc3ccccc3[nH]2)nc1` is -10%; for `Cc1ccc(-c2nc3ccccc3[nH]2)nc1` it is 19%.
Regarding `NC(=O)c1cccc(-c2nc3ccccc3[nH]2)n1`, the inhibition in vivo at 100 mg/kg turned out to be 13%.
For the compound `Oc1cccc(-c2nc3ccccc3[nH]2)n1`, the inhibition in vivo at 100 mg/kg was -7%.
Take `Clc1ccc2nc(-c3ccccn3)[nH]c2c1`: the inhibition in vivo at 100 mg/kg was 36%.
Take `CCCCc1ccc(-c2nc3ccccc3[nH]2)nc1`: the inhibition in vivo at 100 mg/kg was -16%.
The same measure, in the same setting: the figure for `OCc1cccc(-c2nc3ccccc3[nH]2)n1` is -13%; for `Cc1ccc2[nH]c(-c3cccc(Cl)n3)nc2c1` it is 36%.
With `Cc1ccc2nc(-c3ccccn3)[nH]c2c1`, the inhibition in vivo at 100 mg/kg turned out to be 35%.
`c1ccc(-c2nc3ccccc3[nH]2)nc1`: the inhibition in vivo at 100 mg/kg is 22%.
